Assays:
[1] = test system: HCV Con1 subgenomic replicon of genotype 1b (GS4.1 cells); assay: microbe, parasite or virus in culture; assay type: cell-based, HCV genotype 1b; conditions: Hepatitis C virus; for EC50: 72 h
[2] = test system: Huh-7-derived cell line (Zluc) that harbors an HCV genotype 1b replicon and a luciferase reporter gene; assay: microbe, parasite or virus in culture; assay type: cell-based; conditions: Hepatitis C virus, 72 h
[3] = test system: Huh-7-derived cell line (Zluc) that harbors an HCV genotype 1b replicon and a luciferase reporter gene; assay: microbe, parasite or virus in culture; assay type: cell-based; conditions: Hepatitis C virus, 72 h; remark: listed apart in the source
[4] = in vitro; conditions: human
[5] = Cytotoxicity (CC50) reported with the HCV replicon ELISA assay; conditions: human

Row | SMILES | IC50 [1] [µM] | EC50 [1] [µM] | EC50 [2] [µM] | EC50 [3] [µM] | CC50 [4] [µM] | CC50 at 72 hr [5] [µM]
1 | CCOP(=O)(Nc1cc(-c2ccc(-c3cc4ncccn4n3)cc2)sc1C(=O)O)c1ccc(Cl)cc1Cl (stereo not drawn) [Compound 11, 3-N-[(2,4-dichloro-phenyl)-phosphonamidateethyl ester]-5-(4-pyrazolo[1,5-a]pyrimidin-2-ylphenyl)-2-thiophenecarboxylic acid] | < 0.1 | < 0.1 | < 0.1 | 0.1 to 8.3 | > 8.3 | –
2 | COP(=O)(Nc1cc(-c2ccc(Cl)cc2)sc1C(=O)O)c1ccc(C)cc1C (stereo not drawn) [Compound 155] | < 0.1 | 0.1 to 8.3 | 0.1 to 8.3 | > 8.3 | > 8.3 | –
3 | CCOP(=O)(Nc1cc(-c2ccc(C#Cc3cscn3)cc2)sc1C(=O)O)c1ccc(Cl)cc1Cl (stereo not drawn) [Compound 24, 3-N-[(2,4-dichloro-phenyl)-phosphonamidateethyl ester]-5-(4-phenyl-ethynyl-1,3-thiazole)-2-thiophenecarboxylic acid] | < 0.1 | 0.1 to 8.3 | 0.1 to 8.3 | 0.1 to 8.3 | > 8.3 | –
4 | COP(=O)(c1ccc(C)cc1C)N(C)c1cc(-c2ccc(F)cc2)sc1C(=O)O (stereo not drawn) [Compound 32, 2-Thiophenecarboxylic acid, 3-N-methyl-N-[(2,4-dimethyl-phenyl)-phosphonamidatemethyl ester]-5-(4-fluorophenyl)] | 0.1 to 8.3 | 0.1 to 8.3 | 0.1 to 8.3 | > 8.3 | > 8.3 | –
5 | COP(=O)(Nc1cc(-c2ccc(F)cc2)sc1C(=O)O)c1ccc(C)cc1C (stereo not drawn) [Compound 21, 2-Thiophenecarboxylic acid, 3-N-[(2,4-dimethyl-phenyl)-phosphonamidatemethyl ester]-5-(4-fluorophenyl)] | 0.1 to 8.3 | 0.1 to 8.3 | 0.1 to 8.3 | > 8.3 | > 8.3 | –
6 | COP(=O)(Nc1cc(-c2ccc(C(C)(C)C)cc2)sc1C(=O)O)c1ccc(C)cc1C (stereo not drawn) [Compound 156] | 0.1 to 8.3 | 0.1 to 8.3 | 0.1 to 8.3 | > 8.3 | > 8.3 | –
7 | COP(=O)(Nc1cc(-c2ccc(-c3cc4ncccn4n3)cc2)sc1C(=O)O)c1ccc(C)cc1C (stereo not drawn) [Compound 169] | – | – | < 0.1 | < 0.1 | – | –
8 | COP(=O)(Nc1cc(-c2ccc(-c3cc4ncccc4o3)cc2)sc1C(=O)O)c1ccc(C)cc1C (stereo not drawn) [Compound 152] | < 0.1 | < 0.1 | < 0.1 | < 0.1 | > 8.3 | –
9 | COP(=O)(Nc1cc(-c2ccccc2)sc1C(=O)O)c1ccc(C)cc1C (stereo not drawn) [Compound 162] | – | – | 0.1 to 8.3 | > 8.3 | – | –
10 | CCOP(=O)(Nc1cc(-c2ccc(-c3cc4ncccc4o3)cc2)sc1C(=O)O)c1ccc(Cl)cc1F (stereo not drawn) [Compound 160] | < 0.1 | < 0.1 | < 0.1 | 0.1 to 8.3 | > 8.3 | –
11 | CCOCCOP(=O)(Nc1cc(-c2ccc(Cl)cc2)sc1C(=O)O)c1ccc(C)cc1C (stereo not drawn) [Compound 130] | 0.1 to 8.3 | – | – | – | – | > 8.3
12 | COP(=O)(Nc1cc(-c2ccc(-c3cc4ccccc4s3)cc2)sc1C(=O)O)c1ccc(C)cc1C (stereo not drawn) [Compound 153] | < 0.1 | < 0.1 | < 0.1 | 0.1 to 8.3 | > 8.3 | –
13 | Cc1ccc(P(=O)(Nc2cc(-c3ccc(Cl)cc3)sc2C(=O)O)OCC2CCOCC2)c(C)c1 (stereo not drawn) [Compound 84] | 0.1 to 8.3 | 0.1 to 8.3 | – | – | – | > 8.3
14 | Cc1ccc(P(=O)(O)Nc2cc(-c3ccc(F)cc3)sc2C(=O)O)c(C)c1 [Compound 1] | 0.1 to 8.3 | > 8.3 | – | – | – | > 8.3

— US8193372B2, “Phosphothiophene and phosphothiazole HCV polymerase inhibitors” (Idenix Pharmaceuticals, Inc., priority 2009, dated 2012)
